Reference: ChEMBL document CHEMBL5260844, “Optimization of PDE3A Modulators for SLFN12-Dependent Cancer Cell Killing” (ACS Med Chem Lett, 2019)
Activity calls are given as the source filed them. The rule behind the calls is not given here.

system: A549; assay: Cytotoxicity against human A549 cells assessed as cell growth inhibition upto 10 uM measured after 3 days by […] reagent based assay; conditions: time 72.0 hrs

Row | SMILES | Activity
1 | C[C@@H]1CC(=O)NN=C1c1ccc(N)cc1 | inactive
2 | CCN(CC)c1ccc(C2=NNC(=O)CC2C)cc1NC(C)=O (configuration not stated) | inactive
3 | CC1(C)C(=O)NN=C1c1ccc(Cl)cc1 | inactive
4 | C[C@@H]1CC(=O)NN=C1c1ccc(N2CCOCC2)cc1 | inactive
5 | CCNc1ccc(C2=NNC(=O)C[C@H]2C)cc1 | inactive
6 | Cc1nc2cc(C3=NNC(=O)C[C@H]3C)ccc2[nH]1 | inactive
7 | CC1(C)C(=O)NN=C1c1ccc(N2CCOCC2)cc1 | inactive
8 | C[C@H]1CC(=O)NN=C1c1ccc(F)c(F)c1 | inactive
9 | C[C@@H]1CC(=O)NN=C1c1ccc(I)cc1 | inactive
10 | CC(=O)Nc1ccc(C2=NNC(=O)C[C@H]2C)cc1N | inactive
11 | C#Cc1cc(C2=NNC(=O)C[C@H]2C)ccc1NC(C)=O | inactive
12 | CCN(CC)c1ccc(C2=NNC(=O)C[C@H]2C)cc1[N+](=O)[O-] | inactive
13 | C[C@@H]1CC(=O)NN=C1c1ccc(F)cc1 | inactive
14 | CC1(C)C(=O)NN=C1c1ccc(N)cc1 | inactive
15 | CCN(CC)c1ccc(C2=NNC(=O)C[C@H]2C)cc1 | inactive
16 | CCCc1ccc(C2=NNC(=O)C[C@H]2C)cc1 | inactive
17 | CC(=O)Nc1ccc(C2=NNC(=O)C[C@H]2C)cc1Br | inactive
18 | CCNc1ccc(C2=NNC(=O)C[C@H]2C)cc1[N+](=O)[O-] | inactive
19 | C[C@@H]1CC(=O)NN=C1c1ccc(C2=CCCCC2)cc1 | inactive
20 | C[C@@H]1CC(=O)NN=C1c1ccc(N2CCOCC2)c(Cl)c1 | inactive
21 | CCN(CC)c1ccc(C2=NNC(=O)C2(C)C)cc1 | inactive

system: HeLa; assay: Cytotoxicity against human HeLa cells assessed as cell growth inhibition measured after 48 hrs by […] reagent based assay; assay type: functional; conditions: not given

Row | SMILES | EC50
22 | C[C@@H]1CC(=O)NN=C1c1ccc(N)cc1 | > 1000 nM
23 | CCN(CC)c1ccc(C2=NNC(=O)CC2C)cc1NC(C)=O (configuration not stated) | > 1000 nM
24 | CC1(C)C(=O)NN=C1c1ccc(Cl)cc1 | > 1000 nM
25 | C[C@@H]1CC(=O)NN=C1c1ccc(N2CCOCC2)cc1 | 13 nM
26 | CCNc1ccc(C2=NNC(=O)C[C@H]2C)cc1 | 71 nM
27 | Cc1nc2cc(C3=NNC(=O)C[C@H]3C)ccc2[nH]1 | > 1000 nM
28 | CC1(C)C(=O)NN=C1c1ccc(N2CCOCC2)cc1 | > 1000 nM
29 | C[C@H]1CC(=O)NN=C1c1ccc(F)c(F)c1 | > 1000 nM
30 | C[C@@H]1CC(=O)NN=C1c1ccc(I)cc1 | 7.1 nM
31 | CC(=O)Nc1ccc(C2=NNC(=O)C[C@H]2C)cc1N | > 1000 nM
32 | C#Cc1cc(C2=NNC(=O)C[C@H]2C)ccc1NC(C)=O | 65 nM
33 | CCN(CC)c1ccc(C2=NNC(=O)C[C@H]2C)cc1[N+](=O)[O-] | 3.8 nM
34 | C[C@@H]1CC(=O)NN=C1c1ccc(F)cc1 | 410 nM
35 | CC1(C)C(=O)NN=C1c1ccc(N)cc1 | > 1000 nM
36 | CCN(CC)c1ccc(C2=NNC(=O)C[C@H]2C)cc1 | 3.3 nM
37 | CCCc1ccc(C2=NNC(=O)C[C@H]2C)cc1 | 16 nM
38 | CC(=O)Nc1ccc(C2=NNC(=O)C[C@H]2C)cc1Br | 21 nM
39 | CCNc1ccc(C2=NNC(=O)C[C@H]2C)cc1[N+](=O)[O-] | 1.1 nM
40 | C[C@@H]1CC(=O)NN=C1c1ccc(C2=CCCCC2)cc1 | 2.2 nM
41 | C[C@@H]1CC(=O)NN=C1c1ccc(N2CCOCC2)c(Cl)c1 | 4.5 nM
42 | CCN(CC)c1ccc(C2=NNC(=O)C2(C)C)cc1 | > 1000 nM
